Test results: US20120077803A1, “Uses Of NK Receptor Antagonists” (NOVARTIS AG, priority 2009, published 2012)

How the values were obtained:
[1] = test system: dogs with flea allergic dermatitis; test: Pruritus intensity by Actical activity monitors in flea allergic dogs; assay type: in vivo, Beagle dogs; details: for Actical day, mean (standard deviation): 6am-6pm; for Actical night, mean (standard deviation): 6pm-6am
Experimental: (§1) Flea-allergic laboratory Beagle dogs are infested with fleas. Fifty (50) Ctenocephalides felis fleas, 18 to 20 days old are released on the back of every dog on D1. Dogs are combed 48 hours (D3) after infestation to reduce the number of fleas (reduction of allergen charge).
Pruritus intensity: Pruritus intensity is evaluated using activity monitors (Actical™: Actiwatch™; Cambridge Neuorotechnology Ltd, Papworth Everard, UK) according to Nuttall and McEwan. (Nuttal T and McEwan N, “Objective measurement of pruritus in dogs: a preliminary study using activity monitors”. ESVD, 2006, 17 348-351). The physical activity monitors, mounted on collars, are placed around the dog's neck and tightened to the extent that they more with the skin but not so that they compress the underlying tissues. They were put on the dogs on D −5. […] This typically allows to see the difference in activity when the dogs have fleas and are developing pruritic and inflammatory lesions (i.e. dermatitis) and then again their activity during treatment with either the Test Compound or Prednisolone. The activity monitors are typically removed at the end of each phase on D12. Activity monitors measure the movement average within 15 seconds,
(§2) Skin lesions are allowed to develop until the total lesion score reaches ˜20. The Test Compound is then given orally at 50, 150 and 300 mg/day, divided into 2 doses, for 5 days. Prednisolone (10 mg/day, orally) is used as a comparator.
(§3) Lesion scores and Actical™ measurement values are typically observed on the following days: • Pre-value: before challenge with fleas • the day of challenge with fleas (Actical™ measurements only); • D1: the day when the total lesion score reached a sufficiently high value (average lesion score 20) and treatment of the animal started. • D2 to D6,
(§4) In the treatment group, lesion scores were taken from 8 dogs. Actical™ measurements were also taken from 6 of these dogs.

[2] = test system: dogs with flea allergic dermatitis; test: Skin lesion scores (total lesion score) in dogs with flea-allergic dermatitis; assay type: in vivo, Beagle dogs
Experimental: as §1
Skin observations: before flea infestations (D −1) all dogs are typically examined to establish a baseline score for erythema, papules, crusts, scales, alopecia, and excoriation. From D1, daily clinical observations are performed. Each lesion is typically graded using a scale from 0 to 3:
0=no signs 1=mild 2=moderate 3=severe
as §2
Erythema: is typically an acute clinical sign of cutaneous inflammation defined as redness of the skin caused by capillary congestion which can be aggravated by scratching. Excoriation: is typically a punctuate or linear abrasion produced by mechanical means, usually involving only the epidermis but not uncommonly reaching the papillary dermis. […] Papule: is typically a circumscribed, solid elevation with no visible fluid, varying in size from a pinhead to 1 cm. […], formed when there is a high break in the follicle wall. In the presence of bacteria, papules become pustules. Crusts: are typically dried serum, pus, or blood usually mixed with epithelial and sometimes bacterial debris. Scales: are dry or greasy laminated masses of keratin.
as §3, §4
• Erythema*, • Excoriations*, • Papules/pustules • Self induced alopecia^o, and • Scales, • Erythema and excoriations are related to pruritus • Self induced alopecia is also related to pruritus but the improvement is […] after several weeks of treatment.
Day 1 of treatment when dogs reached a sufficient lesion score to initiate treatment (average 20). Pre-values (baseline).

[3] = 50 mg/day orally in 2 doses, day 1 (treatment start)
[4] = 50 mg/day orally in 2 doses, day 2
[5] = 50 mg/day orally in 2 doses, day 3
[6] = 50 mg/day orally in 2 doses, day 4
[7] = 50 mg/day orally in 2 doses, day 5
[8] = 50 mg/day orally in 2 doses, day 6
[9] = 150 mg/day orally in 2 doses, day 1 (treatment start)
[10] = 150 mg/day orally in 2 doses, day 2
[11] = 150 mg/day orally in 2 doses, day 3
[12] = 150 mg/day orally in 2 doses, day 4
[13] = 150 mg/day orally in 2 doses, day 5
[14] = 150 mg/day orally in 2 doses, day 6
[15] = 300 mg/day orally in 2 doses, day 1 (treatment start)
[16] = 300 mg/day orally in 2 doses, day 2
[17] = 300 mg/day orally in 2 doses, day 3
[18] = 300 mg/day orally in 2 doses, day 4
[19] = 300 mg/day orally in 2 doses, day 5
[20] = 300 mg/day orally in 2 doses, day 6

CN(C(=O)c1cc(C(F)(F)F)cc(C(F)(F)F)c1)[C@@H](/C=C/C(=O)N[C@@H]1CCCCNC1=O)Cc1ccc(Cl)c(Cl)c1 [Test Compound, N-[(E)-(R)-1-(3,4-Dichloro-benzyl)-3-((R)-2-oxo-azepan-3-ylcarbamoyl)-allyl]-N-methyl-3,5-bis-trifluoromethyl-benzamide]
Control of pruritic activity (daytime) compared with Prednisolone ([1]; 150 mg and 50 mg, after 5 days of BID administrations): equipotent to the Prednisolone controls | Actical day, mean (standard deviation) [1, 3]: 88 (46) Average activity counts every 15 secs | Actical day, mean (standard deviation) [1, 4]: 64 (40) Average activity counts every 15 secs | Actical day, mean (standard deviation) [1, 5]: 72 (35) Average activity counts every 15 secs | Actical day, mean (standard deviation) [1, 6]: 67 (37) Average activity counts every 15 secs | Actical day, mean (standard deviation) [1, 7]: 62 (40) Average activity counts every 15 secs | Actical day, mean (standard deviation) [1, 8]: 48 (31) Average activity counts every 15 secs | Actical day, mean (standard deviation) ([1]; 50 mg/day orally in 2 doses, fleas (day of challenge)): 84 (47) Average activity counts every 15 secs | Actical day, mean (standard deviation) ([1]; 50 mg/day orally in 2 doses, pre (before exposure to fleas)): 46 (16) Average activity counts every 15 secs | Actical day, mean (standard deviation) [1, 9]: 58 (17) Average activity counts every 15 secs | Actical day, mean (standard deviation) [1, 10]: 48 (13) Average activity counts every 15 secs | Actical day, mean (standard deviation) [1, 11]: 53 (15) Average activity counts every 15 secs | Actical day, mean (standard deviation) [1, 12]: 44 (17) Average activity counts every 15 secs | Actical day, mean (standard deviation) [1, 13]: 60 (41) Average activity counts every 15 secs | Actical day, mean (standard deviation) [1, 14]: 40 (21) Average activity counts every 15 secs | Actical day, mean (standard deviation) ([1]; 150 mg/day orally in 2 doses, fleas (day of challenge)): 53 (16) Average activity counts every 15 secs | Actical day, mean (standard deviation) ([1]; 150 mg/day orally in 2 doses, pre (before exposure to fleas)): 31 (8) Average activity counts every 15 secs | Actical day, mean (standard deviation) [1, 15]: 114 (35) Average activity counts every 15 secs | Actical day, mean (standard deviation) [1, 16]: 116 (77) Average activity counts every 15 secs | Actical day, mean (standard deviation) [1, 17]: 99 (38) Average activity counts every 15 secs | Actical day, mean (standard deviation) [1, 18]: 107 (28) Average activity counts every 15 secs | Actical day, mean (standard deviation) [1, 19]: 129 (53) Average activity counts every 15 secs | Actical day, mean (standard deviation) [1, 20]: 79 (21) Average activity counts every 15 secs | Actical day, mean (standard deviation) ([1]; 300 mg/day orally in 2 doses, fleas (day of challenge)): 93 (37) Average activity counts every 15 secs | Actical day, mean (standard deviation) ([1]; 300 mg/day orally in 2 doses, pre (before exposure to fleas)): 58 (21) Average activity counts every 15 secs | Actical night, mean (standard deviation) ([1]; 50 mg/day orally in 2 doses, Fleas (day of challenge)): 6.8 (4.9) Average activity counts every 15 secs | Actical night, mean (standard deviation) ([1]; 50 mg/day orally in 2 doses, Pre (before exposure to fleas)): 5.2 (3.3) Average activity counts every 15 secs | Actical night, mean (standard deviation) [1, 3]: 22.1 (13.5) Average activity counts every 15 secs | Actical night, mean (standard deviation) [1, 4]: 13.2 (11.8) Average activity counts every 15 secs | Actical night, mean (standard deviation) [1, 5]: 11.5 (7.3) Average activity counts every 15 secs | Actical night, mean (standard deviation) [1, 6]: 12.6 (9.9) Average activity counts every 15 secs | Actical night, mean (standard deviation) [1, 7]: 9.8 (6.8) Average activity counts every 15 secs | Actical night, mean (standard deviation) [1, 8]: 9.9 (7.4) Average activity counts every 15 secs | Actical night, mean (standard deviation) ([1]; 150 mg/day orally in 2 doses, Fleas (day of challenge)): 6.2 (3.8) Average activity counts every 15 secs | Actical night, mean (standard deviation) ([1]; 150 mg/day orally in 2 doses, Pre (before exposure to fleas)): 4.2 (2.2) Average activity counts every 15 secs | Actical night, mean (standard deviation) [1, 9]: 14.6 (4.2) Average activity counts every 15 secs | Actical night, mean (standard deviation) [1, 10]: 10.7 (6.8) Average activity counts every 15 secs | Actical night, mean (standard deviation) [1, 11]: 10.6 (7.5) Average activity counts every 15 secs | Actical night, mean (standard deviation) [1, 12]: 9.4 (4.2) Average activity counts every 15 secs | Actical night, mean (standard deviation) [1, 13]: 10.4 (6.5) Average activity counts every 15 secs | Actical night, mean (standard deviation) [1, 14]: 11.2 (7.4) Average activity counts every 15 secs | Actical night, mean (standard deviation) ([1]; 300 mg/day orally in 2 doses, Fleas (day of challenge)): 6.8 (3.0) Average activity counts every 15 secs | Actical night, mean (standard deviation) ([1]; 300 mg/day orally in 2 doses, Pre (before exposure to fleas)): 7.0 (3.8) Average activity counts every 15 secs | Actical night, mean (standard deviation) [1, 15]: 24.6 (22.5) Average activity counts every 15 secs | Actical night, mean (standard deviation) [1, 16]: 11.9 (4.8) Average activity counts every 15 secs | Actical night, mean (standard deviation) [1, 17]: 16.8 (9.5) Average activity counts every 15 secs | Actical night, mean (standard deviation) [1, 18]: 20.7 (10.5) Average activity counts every 15 secs | Actical night, mean (standard deviation) [1, 19]: 16.2 (13.2) Average activity counts every 15 secs | Actical night, mean (standard deviation) [1, 20]: 13.3 (10.2) Average activity counts every 15 secs | Control of nighttime activity back to baseline ([1]; Test Compound doses, in particular 50 mg, BID): positive efficacy | Total score ctb (total lesion score compared to baseline), mean (standard deviation) [2, 4]: −3.7 (4.9) | Total score ctb (total lesion score compared to baseline), mean (standard deviation) [2, 5]: −2.8 (5.5) | Total score ctb (total lesion score compared to baseline), mean (standard deviation) [2, 6]: −1.9 (7.1) | Total score ctb (total lesion score compared to baseline), mean (standard deviation) [2, 7]: −2.8 (6.4) | Total score ctb (total lesion score compared to baseline), mean (standard deviation) [2, 8]: −8.7 (9.9) | Total score ctb (total lesion score compared to baseline), mean (standard deviation) [2, 10]: −2.3 (3.3) | Total score ctb (total lesion score compared to baseline), mean (standard deviation) [2, 11]: −3.9 (4.0) | Total score ctb (total lesion score compared to baseline), mean (standard deviation) [2, 12]: −6.4 (3.3) | Total score ctb (total lesion score compared to baseline), mean (standard deviation) [2, 13]: −5.0 (3.8) | Total score ctb (total lesion score compared to baseline), mean (standard deviation) [2, 14]: −8.8 (8.8) | Reduction of the lesion score (inhibition) compared with prednisolone ([2]; 300 mg, 150 mg, 50 mg): in the same range as the potent corticosteroid prednisolone | Total score ctb (total lesion score compared to baseline), mean (standard deviation) [2, 16]: −3.6 (9.1) | Total score ctb (total lesion score compared to baseline), mean (standard deviation) [2, 17]: −4.1 (6.4) | Total score ctb (total lesion score compared to baseline), mean (standard deviation) [2, 18]: −7.6 (8.4) | Total score ctb (total lesion score compared to baseline), mean (standard deviation) [2, 19]: −7.6 (9.7) | Total score ctb (total lesion score compared to baseline), mean (standard deviation) [2, 20]: −6.7 (8.1)
